These results are taken from US20200164078A1, “APPLICABLE CHEMICAL COMPOSITION COMPRISING AN AGENT CONJUGATED TO A HYDROPHOBIC MOIETY AND A CARRIER” (TECHNISCHE UNIVERSITEIT EINDHOVEN, priority 2017, published 2020).

“Also recorded” adds a separate entry of the source.

The EC50 is the concentration giving half of the maximal effect. Low readings indicate higher potency in that assay, high ones lower potency in that assay.

For data set [1] the following is noted: cited from earlier work.
The nature of data set [2]: Stability measurements by UV absorption in PBS. The conditions noted are these: 200 mg/L, day 0-13.
Data set [3] in a line: Release from 10 wt % bifunctional UPy-PEG10k hydrogel into PBS. In kind it is physicochemical. As for the experimental part:
The UPy-PEG10k liquid carrier composition was prepared by dissolving the UPy-PEG10k powder in PBS at elevated pH by stirring at 70° C. for 1 h using a magnetic stirrer (e.g. 10 mg in 90 μl PBS pH 11.7 for a 10 wt % hydrogel). Afterwards the viscous solution was cooled to RT with a resulting pH of approximately 9.0. […] The obtained composition is a liquid composition at this pH.
100 μL of the solutions were transferred to Millicell hanging cell culture inserts (PIEP12R48/MCEP24H48) and immediately placed in a 24-well plate with 600 μL PBS per well. Contact with the neutral PBS through the membrane of the insert results in gelation of the liquid carrier, forming the hydrogel. At set time-points the PBS was refreshed and the removed PBS was analyzed for MMC or MPC content. Analysis was performed by measuring UV absorption and converted to concentration via predetermined standard curves. […] […]. Release of MPC can be correlated to the erosion of the hydrogel. The initial goal to couple cholesterol to MMC to slow down the release from the hydrogel is accomplished hereby.

The test system of another data set is CC531 cells. The conditions noted are these: approximately 24 hour incubation; for Efficacy: MTT; for EC50: global sigmoidal fit of three assays, n=8, ±SD.

Protocol for CC531 cells: After approximately 24 hour incubation in the cell incubator, 25 μL of freshly prepared MTT solution (5 mg/mL in PBS, filtered through 0.2 μm filter) was added to the wells and incubated for 2 hours. The medium was then completely removed and replaced with 125 μL 0.04 M HCl in isopropanol and incubated for 1 hour. After gently mixing, 100 μl of the isopropanol solution was transferred to a Costar EIA/RIA 96 transparent flat bottom wells plate. The absorbance was measured at 570 nm with 650 nm as reference. Absorbance of MTT was read out on a Tecan Saffire 2 plate reader and Tecan Spark 10M plate reader. Values were normalized to untreated cells. The complete assay was performed three times for CC531 cells. All data sets were used together to fit a global sigmoidal dose response curve with a shared slope and center, giving one EC50 per cell line. A concatenate fit was plotted through the MTT results for visualization. […] Every experiment n=8, ±SD.

As to `CC(C)CCC[C@@H](C)[C@H]1CC[C@H]2[C@@H]3CC=C4C[C@@H](O)CC[C@]4(C)[C@H]3CC[C@]12C` [Cholesterol], in data set [1], the Water solubility entry is “Less than 0.000095 mg/mL)”.

For the compound `COc1cccc2c1C(=O)c1c(O)c3c(c(O)c1C2=O)C[C@@](O)(C(C)=O)C[C@@H]3O[C@H]1C[C@H](N)[C@H](O)[C@H](C)O1` [Daunorubicin], in data set [1], the Water solubility is 39 µg/mL.

With `COc1cccc2c1C(=O)c1c(O)c3c(c(O)c1C2=O)C[C@@](O)(C(=O)CO)C[C@@H]3O[C@H]1C[C@H](N)[C@H](O)[C@H](C)O1` [Doxorubicin], the Water solubility in data set [1] was 1180 µg/mL.

For `Nc1ccn([C@@H]2O[C@H](CO)[C@@H](O)C2(F)F)c(=O)n1` [Gemcitabine], the Water solubility in data set [1] was 51300 µg/mL.

With `CO[C@@]12[C@H](COC(N)=O)C3=C(C(=O)C(C)=C(N)C3=O)N1C[C@@H]1N[C@@H]12` [MMC, Mitomycin C], the “Stability (UV absorption spectra)” value in data set [2] (pH 6.5, 37° C.) is reported as “unstable; also recorded: degrades”; in data set [2] (pH 7.4, 4° C.), “stable”; in data set [2] (pH 7.4, 37° C.), “stable”. For the same compound, the “Release (%)” value in data set [3] (0.3 mM in gel, time 0.05 day) is listed as 38.93%; in data set [3] (0.3 mM in gel, time 0.21 day) it was 69.58%; in data set [3] (0.3 mM in gel, time 1.00 day) it was 86.44%; in data set [3] (3 mM in gel, time 0.06 day) it was 34.09%; in data set [3] (3 mM in gel, time 0.17 day) it was 58.33%; in data set [3] (3 mM in gel, time 0.38 day), 79.92%. Moreover, the “Release (%)” value in data set [3] (3 mM in gel, time 1.00 day) amounted to 95.83%; in data set [3] (3 mM in gel, time 2.00 day), 102.65%. Also, the “Time of release from the hydrogel” value in data set [3] (10 wt % UPy-PEG10k hydrogel, diffusion kinetics) is given as “approximately 24 hours”. The Efficacy entry in the data set on CC531 cells is “approximately 100%”. Besides, the EC50 with CC531 cells was found to be 19.6 ± 3.2 µM.

Turning to Mitomycin-PEG24-Cholesterol [MPC], in the data set on CC531 cells, the Efficacy entry is given as “approximately 100%” and the EC50 is 3.8 ± 1.1 µM.
